The test system of data set [1] is Mammary Adenocarcinoma 16/C. As to the kind of experiment: Exp 2877A: evaluation against early stage Mammary Adenocarcinoma 16/C implanted SC in C3H female mice. In kind it is in vivo. The procedure:
In Experiment #2877A the following general methodologies were employed:
Tumor and Animal Maintenance
Mammary adenocarcinoma-16/C were used in the studies. […] The mice were supplied food and water ad libitum.
Chemotherapy of Solid Tumors
Animals were pooled, implanted subcutaneously with 30 to 60 mg tumor fragments by a 12 gauge trocar on day 0, and again pooled before unselective distribution to the various treatment and control groups. For early stage treatment, chemotherapy was started within 1 to 3 days after tumor implantation while the number of cells was relatively small (10^7 to 10^8 cells). Tumors were measured with a caliper twice weekly. Mice were sacrificed when their tumors reached 1500 mg. Tumor weights are estimated from two-dimensional measurements:
Tumor weight (in mg)=(a×b^2)/2, where a and b are the tumor length and width in (mm), respectively.
End Points for Assessing Antitumor Activity for Solid Tumors
The following quantitative endpoints were used to assess antitumor activity: • a) Tumor growth delay (T−C value), where T is the median time (in days) required for the treatment group tumors to reach a predetermined size (e.g., 1000 mg), and C is the median time (in days) for the control group tumors to reach the same size. Tumor-free survivors are excluded from these calculations (cures are tabulated separately). This value is an important criterion of antitumor effectiveness because it allows the quantification of tumor cell kill. • b) Calculation of tumor cell kill For subcutaneously (SC) growing tumors, the log10 cell kill was calculated from the following formula:
[formula] where T−C is the tumor growth delay as described above and Td is the tumor volume doubling time (in days), estimated from the best fit straight line from a log-linear growth plot of the control group tumors in exponential growth (100 to 800 mg range). The conversion of the T−C values to log10 cell kill is possible because the Td of tumors regrowing post treatment (Rx) approximates the Td values of the tumors in untreated control mice.
The issue of conversion of tumor growth delay (T−C value) to log tumor cell kill is justified in this series because of the large number of cures obtained with 5 of the agents in this XK469 series that have been previously studied and patented. Cures are a clear indication of tumor cell kill (rather than stasis of tumor cell replication).
In selected cases, both for historic in vivo evaluation data as well as data presented here, it is of value to compare log kill numbers from trials of markedly different testing schedules. For this purpose, an activity table was created, and is presented below. It should be noted that an activity rating of +++ to ++++ is needed to effect partial regression (PR) or complete regression (CR) of 100 to 300 mg size masses of most transplanted solid tumors of mice. Thus, an activity rating of + or ++ would not be scored as active by usual clinical criteria. A PR is a reduction in tumor mass to less than 50% of pretreatment size. A CR is a reduction in tumor mass to below palpable size (i.e., reduction to zero detectable mass).

The procedure of data set [2]: Mammary adenocarcinoma-16/C were used in the studies. Tumors were maintained in the mouse strain of origin C3H (for the mammary tumors). Individual mouse body weights for each experiment were within 5 grams, and all mice were over 17 grams at the start of therapy. The mice were supplied food and water ad libitum.
The treatment and control groups were measured when the control group tumors reach approximately 700 to 1200 mg in size (median of group). The T/C value in percent is an indication of antitumor effectiveness: A T/C=0% means no tumor growth. […] A T/C equal to or less than 42% is considered significant antitumor activity by the Drug Evaluation Branch of the Division of Cancer Treatment (NCI). A T/C value <10% is considered to indicate highly significant antitumor activity, and is the level used by NCI to justify a clinical trial if toxicity, formulation, and certain other requirements are met (termed DN-2 level activity).

The subject of data set [3] is transplantable mouse tumors. Conditions: cited from earlier work.
Setting [4] is: Cg 4, IV Q2dx7, 54 mg/kg, total 378 mg/kg.
Setting [5] is: Cg 5, IV Q2dx7, 34 mg/kg, total 238 mg/kg.
Setting [6] is: Cg 6, IV Q2dx7, 48-60 mg/kg, total 372 mg/kg.
[7] abbreviates: Cg 7, IV Q2dx7, 30-38 mg/kg, total 234 mg/kg.
The mark [8] stands for this setting: Cg 8, IV Qd1,3,5,7-13, 57-125 mg/kg, total 822 mg/kg.
[9] abbreviates: Cg 9, IV Qd1,3,5,7-13, 36-75 mg/kg, total 513 mg/kg.

SMILES strings stand for the structures. Read-outs that look alike come from different tables or passages of the source.

Take `COc1c(Br)ccc2ccc(Oc3ccc(OC(C)C(=O)O)cc3)nc12` (stereo not drawn) [SH135R, 2-(4-(7-Bromo-8-methoxyquinolin-2-yloxy)phenoxy)propanoic acid]: in data set [1] (setting [4]), the “Activity rating (Comments)” value is “(++++) (Highly active ++++ >2.8)”, the “Log Cell Kill Gross” value worked out at 5.0, the “Log Cell Kill Net” value is on record as 1.4 and the “Median Tumor Burden in mg on d10” value stood at 0 mg. In addition, in data set [1] (setting [4]), the “T-C” value stood at 16.5 days, the T/C % was 0%, the “Time to 1000 mg” value is 25.5 days and the “Tumor Free on d43” value was 0/5. In addition, in data set [1] (setting [5]), the “Activity rating (Comments)” value was “(++++) (Highly active ++++ >2.8)”, the “Log Cell Kill Gross” value is reported as 4.2, the “Log Cell Kill Net” value was 0.6 and the “Median Tumor Burden in mg on d10” value is 63 mg. For the same compound, in data set [1] (setting [5]), the “T-C” value came out at 14 days, the T/C % is listed as 5.5%, the “Time to 1000 mg” value is listed as 23 days and the “Tumor Free on d43” value is recorded as 0/4. In data set [1] (Cg 5, IV Q2dx7, 34 mg/kg, total 238 mg/kg, listed as SH 135(R)), this compound came in with a T/C % of 0%.
Take `COc1c(Cl)ccc2ccc(Oc3ccc(OC(C)C(=O)O)cc3)nc12` (stereo not drawn) [SH140R, 2-(4-(7-Chloro-8-methoxyquinolin-2-yloxy)phenoxy)propanoic acid]: the “Drug Death (day of death)” value in data set [2] (setting [6]) was 0/5. Further, the “Drug Death (day of death)” value in data set [2] (setting [7]) is reported as 0/5. For the same compound, in data set [1] (setting [6]), the “Activity rating (Comments)” value is “(++++) (Highly active ++++ >2.8)”, the “Log Cell Kill Gross” value is 4.8, the “Log Cell Kill Net” value is on record as 1.2 and the “Median Tumor Burden in mg on d10” value is listed as 0 mg. In data set [1] (setting [6]), the “T-C” value turned out to be 16 days, the T/C % is reported as 0%, the “Time to 1000 mg” value is 25 days and the “Tumor Free on d43” value is on record as 0/5. Also, in data set [1] (setting [7]), the “Activity rating (Comments)” value is “(++++) (Highly active ++++ >2.8)”, the “Log Cell Kill Gross” value was 3.6, the “Log Cell Kill Net” value was 0 and the “Median Tumor Burden in mg on d10” value is 63 mg. In addition, in data set [1] (setting [7]), the “T-C” value was found to be 12 days, the T/C % came to 5.5%, the “Time to 1000 mg” value worked out at 21 days and the “Tumor Free on d43” value is recorded as 0/5.
On to `COc1c(F)ccc2ccc(Oc3ccc(OC(C)C(=O)O)cc3)nc12` (stereo not drawn) [SH144R, 2-(4-(7-Fluoro-8-methoxyquinolin-2-yloxy)phenoxy)propanoic acid], for which the “Drug Death (day of death)” value in data set [2] (setting [8]) was 0/4. Also, the “Drug Death (day of death)” value in data set [2] (Cg 8, IV Qd1,3,5,7-13, 57-125 mg/kg, total 822 mg/kg, listed as SH 144(R)) is reported as “no drug deaths”. In addition, in data set [2] (setting [9]), the “Drug Death (day of death)” value is on record as 0/5. In data set [1] (setting [8]), the “Activity rating (Comments)” value is reported as “(++++) (Highly active ++++ >2.8)”, the “Log Cell Kill Gross” value stood at 4.1, the “Log Cell Kill Net” value came to 0.5 and the “Median Tumor Burden in mg on d10” value was 0 mg. For the same compound, in data set [1] (setting [8]), the “T-C” value is listed as 13.5 days, the T/C % was 0%, the “Time to 1000 mg” value is 22.5 days and the “Tumor Free on d43” value is recorded as 0/4. Moreover, in data set [1] (setting [9]), the “Activity rating (Comments)” value was “(+++) (2.0-2.8)”, the “Log Cell Kill Gross” value came to 2.1, the “Log Cell Kill Net” value is listed as −1.5 and the “Median Tumor Burden in mg on d10” value turned out to be 320 mg. For the same compound, in data set [1] (setting [9]), the “T-C” value was 7 days, the T/C % was found to be 28%, the “Time to 1000 mg” value is given as 16 days and the “Tumor Free on d43” value is on record as 0/5.
Regarding `CC(Oc1ccc(Oc2cnc3ccc(Cl)cc3n2)cc1)C(=O)[O-].[Na+]` (stereo not drawn) [XK469], the “activity against transplantable mouse tumors” value in data set [3] (Corbett et al., Investigational New Drugs 16, 129-139 (1998)) was “broad activity”. The undesirable side effects entry in data set [3] (reported, in vivo) is “in vivo toxicity, e.g., paralytic ileus, GI-epithelial damage, marrow toxicity, neuromuscular toxicity and weight loss”. Moreover, the potency entry in data set [3] (reported) is “relatively low potency”.

The record behind these values is US8183379B2, “Antitumor agents” (Wayne State University, priority 2005, dated 2012).
